Laboratory results taken from patent publication US20250326744A1, “PIPERAZINE DERIVATIVE OR SALT THEREOF, AND PHARMACEUTICAL COMPOSITION” (priority 2022, published 2025).
Structures can show the parent of a compound that is named as a salt.

Experiments:
mexB (EC) strain = test: Efflux ability inhibition effect on drug efflux pump MexB (Test Examples 1 and 3): proliferation (OD595) of mexB (EC) strain with EM or LVFX at 1/4 MIC, EC75; assay type: cell-based, Escherichia coli; conditions: Table 53, Test Example 3, same manner as Test Example 1; for EC75, mexB (EC) strain, LVFX: combined with LVFX at 1/4 MIC
Method in brief: (§1)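 E. coli ΔacrB/ΔtolC strains carrying P. aeruginosa MexAB-OprM or MexXY-OprM were grown in LB for 16 to 20 hours with EM or LVFX at ¼ MIC plus compound (0 to 800 μM). Growth was read as OD595. EC75 is the lowest compound concentration giving ≥75% growth inhibition versus antibiotic alone.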

mexY (EC) strain = test: Efflux ability inhibition effect on drug efflux pump MexY (Test Examples 1 and 3): proliferation (OD595) of mexY (EC) strain with EM or LVFX at 1/4 MIC, EC75; assay type: cell-based, Escherichia coli; conditions: Table 53, Test Example 3, same manner as Test Example 1; for EC75, mexY (EC) strain, LVFX: combined with LVFX at 1/4 MIC
Method in brief: as §1

mexB (PA) strain = test: Combinational effect with antibacterial agent against Pseudomonas aeruginosa (Test Examples 2 and 4): mexB (PA) strain with LVFX, TC or AZT at 1/4 MIC, EC99; assay type: cell-based; conditions: mexB (PA) strain, Test Example 4; for EC99, combinational effect with AZT, mexB (PA): combined with AZT at 1/4 MIC; for EC99, combinational effect with LVFX, mexB (PA): combined with LVFX at 1/4 MIC; for EC99, combinational effect with TC, mexB (PA): combined with TC at 1/4 MIC
Method in brief: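 P. aeruginosa mexB (PA) strain, lacking MexCD-OprJ, MexEF-OprN and MexXY and overexpressing MexAB-OprM, grown 16–20 h in CAMHB (10^4–5 CFU/well) with LVFX, TC or AZT at ¼ MIC plus test compound at 0–800 μM. Growth read as OD595; EC99 is the lowest compound concentration giving ≥99% growth inhibition.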

S-3769 strain = test: Combinational effect with antibacterial agent against Pseudomonas aeruginosa (Test Examples 2 and 4): S-3769 strain with AMK or GM at 1/4 MIC, EC99; assay type: cell-based; conditions: S-3769 strain, Test Example 4; for EC99, combinational effect with AMK, S-3769 strain: combined with AMK at 1/4 MIC; for EC99, combinational effect with GM, S-3769 strain: combined with GM at 1/4 MIC
Method in brief: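 P. aeruginosa S-3769 (clinical isolate, MexY overexpressed) grown 16–20 h in CAMHB, 10^4 to 5 CFU/well, with AMK or GM at ¼ MIC plus test compound 0–800 μM. Growth read as OD595; EC99 is the lowest compound concentration giving ≥99% growth inhibition.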

Compound | EC75, mexB (EC) strain, EM (mexB (EC) strain; combined with EM at 1/4 MIC) | EC75, mexB (EC) strain, LVFX (mexB (EC) strain) | EC75, mexY (EC) strain, EM (mexY (EC) strain; combined with EM at 1/4 MIC) | EC75, mexY (EC) strain, LVFX (mexY (EC) strain) | EC99, combinational effect with AZT, mexB (PA) (mexB (PA) strain) | EC99, combinational effect with LVFX, mexB (PA) (mexB (PA) strain) | EC99, combinational effect with TC, mexB (PA) (mexB (PA) strain) | EC99, combinational effect with AMK, S-3769 strain (S-3769 strain) | EC99, combinational effect with GM, S-3769 strain (S-3769 strain)
COc1cncc(F)c1CN1CCN(C(=O)[C@H](N)C2CCN(CCc3cc(Cl)ccc3-c3ccccc3)CC2)CC1 [Example 514, Hydrobromide of (R)-2-amino-2-(1-(2-(4-chloro-[1,1-biphenyl]-2-yl)ethyl)piperidin-4-yl)-1-(4-((3-fluoro-5-methoxypyridin-4-yl)methyl)piperazin-1-yl)ethan-1-one] | B (25 μM<EC75≤100 μM) | B (25 μM<EC75≤100 μM) | B (25 μM<EC75≤100 μM) | B (25 μM<EC75≤100 μM) | C (100 μM<EC99) | C (100 μM<EC99) | C (100 μM<EC99) | B (25 μM<EC99≤100 μM) | B (25 μM<EC99≤100 μM)
N[C@@H](C(=O)N1CCN(C[C@@H]2CCCN2)CC1)C1CCN(CCc2cc(Cl)ccc2-c2ccccc2)CC1 [Example 538, Hydrobromide of (R)-2-amino-2-(1-(2-(4-chloro-[1,1-biphenyl]-2-yl)ethyl)piperidin-4-yl)-1-(4-(((S)-pyrrolidin-2-yl)methyl)piperazin-1-yl)ethan-1-one] | – | B (25 μM<EC75≤100 μM) | – | A (12.5 μM<EC75≤25 μM) | C (100 μM<EC99) | C (100 μM<EC99) | C (100 μM<EC99) | C (100 μM<EC99) | C (100 μM<EC99)
